Literature values as cited in patent US9314447B2 (Lupin Atlantis Holdings, S.A., priority 2012, dated 2016).

Conditions: in vivo

elimination half-life: about 20 hours
Compound: CC(C)(Oc1ccc(C(=O)c2ccc(Cl)cc2)cc1)C(=O)O [Fenofibric acid]
